Data: patent US20060165656A1, “Medicinal preparation having chemotherapeutic encapsulated therein” (priority 2002, published 2006)
Like-named read-outs stand apart in the source and are kept apart here.

What was measured:
[1] = test system: Mouse colon cancer-derived CT-26 cells transplanted in BALB/cAnNCrj male mice; assay: In vivo experiment (2): tumor volume and weight, HVJ-E/BLM into the tumor with or without intraperitoneal CDDP; conditions: Day 21, physiological saline into the tumor
[2] = test system: mouse colon carcinoma cell CT26; conditions: 30 minutes at 37° C., counted two days later, HCl
Procedure: A microtube containing the sample was centrifuged at 15,000 rpm for 15 minutes at 4° C. to give the HVJ-E vector as a precipitate, and the supernatant was removed. […] Further, 2 μl of 3% Triton-X100 was added thereto to prepare a sample containing Triton-X100 at a final concentration of 0.1%, which was then left on ice for 15 minutes. Thereafter, 500 μl PBS solution was added thereto. The microtube was centrifuged at 15,000 rpm for 15 minutes at 4° C., and the supernatant was removed without removing the precipitate, and 500 μl PBS solution was added again to the precipitate. The microtube was centrifuged again at 15,000 rpm for 15 minutes at 4° C., and the supernatant was removed without removing the precipitate.
The resulting precipitate was suspended in 180 μl PBS, and the resulting sample solution was pipetted in a volume of 30 μl/microtube into 6 microtubes. Five microlitters of protamine sulfate solution prepared at 5 mg/ml and 500 μl DMEM solution (Dulbecco's modified Eagle medium) were added to each tube.
The above sample solution was added to mouse colon carcinoma cell CT26 prepared on a 6-well plate. The plate was kept for 30 minutes in an incubator at 37° C., and then the medium was exchanged with 500 μl medium (DMEM containing 10% FCS). The cells were incubated for 2 days in a CO2 incubator at 37° C. Two days later, the number of viable cells was counted to evaluate the anticancer effect.

Compound | tumor weight ([1]; CDDP 0.2 mg/body i.p.) | average tumor volume ([1]; CDDP 0.2 mg/body once intraperitoneally, 10 mice) | tumor weight ([1]; CDDP 0.4 mg/body i.p.) | average tumor volume ([1]; CDDP 0.4 mg/body once intraperitoneally, 3 mice) | number of viable cells (Mean) ([2]; 1/50 bleomycin group: bleomycin 50 μg/DMEM 500 μl/well) | number of viable cells (Mean) ([2]; 1/500 bleomycin group: bleomycin 5 μg/DMEM 500 μl/well) | number of viable cells (Mean) ([2]; 1/500 bleomycin group: bleomycin 5 μg/DMEM 500 μl/well, listed as Bleomycin) | number of viable cells (Mean) ([2]; 1/5,000 bleomycin group: bleomycin 500 ng/DMEM 500 μl/well) | number of viable cells (Mean) ([2]; 1/5,000 bleomycin group: bleomycin 500 ng/DMEM 500 μl/well, listed as Bleomycin)
[NH2][Pt]([NH2])([Cl])[Cl] [CDDP, cisplatin] | 1619.79 mg | 1720.14 mm^3 | 1164.13 mg | 1367.62 mm^3 |  |  |  |  | 
bleomycin HCl |  |  |  |  | 81800 | 164,600 | 164600 | 196,800 | 196800
